Experiments:
[1] = biological target: 5-hydroxytryptamine receptor 6 (Homo sapiens, UniProt P50406); assay type: cell membranes, HeLa, Membrane; also: in other assays of this panel Not Active means under 50% inhibition at 10 µM
Melanocortin receptor 5 = Melanocortin receptor 5 (Homo sapiens, UniProt P33032); assay type: cell membranes, HEK293, Membrane; conditions: hek293; also: in other assays of this panel Not Active means under 50% inhibition at 10 µM
[2] = biological target: Tyrosine-protein kinase Fyn (Homo sapiens, UniProt P06241); assay: biochemical; assay type: cell-based, Insect cells;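 also: enzymatic inhibition of Fyn kinase activity measured with Poly(Glu:Tyr) as the phosphorylation substrate; in other assays of this panel Not Active means under 50% inhibition at 10 µM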
Tyrosine-protein kinase Fyn, sequence (P06241 whole entry): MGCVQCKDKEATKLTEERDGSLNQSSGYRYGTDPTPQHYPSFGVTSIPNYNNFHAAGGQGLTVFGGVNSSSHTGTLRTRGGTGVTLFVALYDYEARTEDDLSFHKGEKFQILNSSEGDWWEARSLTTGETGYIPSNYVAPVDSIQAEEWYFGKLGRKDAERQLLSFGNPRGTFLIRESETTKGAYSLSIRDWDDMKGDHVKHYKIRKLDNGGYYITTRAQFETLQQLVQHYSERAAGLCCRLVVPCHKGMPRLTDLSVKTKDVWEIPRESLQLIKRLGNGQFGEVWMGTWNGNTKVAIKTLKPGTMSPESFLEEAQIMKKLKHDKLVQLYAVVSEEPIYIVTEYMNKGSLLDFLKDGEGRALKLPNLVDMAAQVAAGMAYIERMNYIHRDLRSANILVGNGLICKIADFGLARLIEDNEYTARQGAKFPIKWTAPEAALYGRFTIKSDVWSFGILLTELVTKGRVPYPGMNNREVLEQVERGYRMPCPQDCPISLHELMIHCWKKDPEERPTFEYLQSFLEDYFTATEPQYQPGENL

[3] = biological target: Delta-type opioid receptor (Homo sapiens, UniProt P41143); assay type: cell membranes, HEK293, Membrane; conditions: hek293; also: in other assays of this panel Not Active means under 50% inhibition at 10 µM
Delta-type opioid receptor, sequence (P41143 whole entry): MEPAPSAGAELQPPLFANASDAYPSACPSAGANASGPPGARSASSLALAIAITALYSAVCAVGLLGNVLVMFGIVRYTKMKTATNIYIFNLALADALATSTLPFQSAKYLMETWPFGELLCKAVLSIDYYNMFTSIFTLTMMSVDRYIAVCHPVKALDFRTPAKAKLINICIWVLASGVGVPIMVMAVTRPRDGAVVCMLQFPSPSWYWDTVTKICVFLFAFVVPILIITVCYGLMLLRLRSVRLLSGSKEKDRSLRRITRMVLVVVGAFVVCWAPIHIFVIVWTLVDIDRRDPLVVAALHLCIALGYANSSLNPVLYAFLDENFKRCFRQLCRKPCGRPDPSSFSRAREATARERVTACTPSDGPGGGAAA

Cytochrome P450 2D6 = Cytochrome P450 2D6 (Homo sapiens, UniProt P10635); conditions: bti-tn-5b1-4; also: in other assays of this panel Not Active means under 50% inhibition at 10 µM
Cytochrome P450 2D6, sequence (P10635 whole entry): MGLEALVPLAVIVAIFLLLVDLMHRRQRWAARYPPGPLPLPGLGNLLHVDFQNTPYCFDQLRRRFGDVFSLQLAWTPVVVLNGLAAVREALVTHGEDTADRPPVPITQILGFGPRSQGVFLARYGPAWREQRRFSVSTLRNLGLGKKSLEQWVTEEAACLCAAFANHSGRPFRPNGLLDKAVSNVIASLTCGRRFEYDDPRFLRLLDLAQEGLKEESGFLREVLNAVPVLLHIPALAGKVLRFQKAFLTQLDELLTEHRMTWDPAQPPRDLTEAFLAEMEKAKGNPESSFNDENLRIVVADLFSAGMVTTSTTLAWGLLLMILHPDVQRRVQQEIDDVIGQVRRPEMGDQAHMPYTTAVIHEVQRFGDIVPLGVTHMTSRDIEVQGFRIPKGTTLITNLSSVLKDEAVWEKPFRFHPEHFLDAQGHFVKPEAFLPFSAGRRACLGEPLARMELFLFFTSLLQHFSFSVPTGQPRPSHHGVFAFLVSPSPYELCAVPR

[4] = DRUGMATRIX: Glutamate, NMDA, Agonism radioligand binding (ligand: [3H] CGP-39653); assay type: cell membranes, Rattus norvegicus, Wistar, Cerebral cortex, Membrane; conditions: Not Active = under 50% inhibition at 10 µM
[5] = biological target: T1, Muscarinic acetylcholine receptor M5 (Homo sapiens, UniProt P08912); assay type: cell membranes, Membrane; conditions: cho-k1; also: in other assays of this panel Not Active means under 50% inhibition at 10 µM
T1 sequence (P08912 whole entry): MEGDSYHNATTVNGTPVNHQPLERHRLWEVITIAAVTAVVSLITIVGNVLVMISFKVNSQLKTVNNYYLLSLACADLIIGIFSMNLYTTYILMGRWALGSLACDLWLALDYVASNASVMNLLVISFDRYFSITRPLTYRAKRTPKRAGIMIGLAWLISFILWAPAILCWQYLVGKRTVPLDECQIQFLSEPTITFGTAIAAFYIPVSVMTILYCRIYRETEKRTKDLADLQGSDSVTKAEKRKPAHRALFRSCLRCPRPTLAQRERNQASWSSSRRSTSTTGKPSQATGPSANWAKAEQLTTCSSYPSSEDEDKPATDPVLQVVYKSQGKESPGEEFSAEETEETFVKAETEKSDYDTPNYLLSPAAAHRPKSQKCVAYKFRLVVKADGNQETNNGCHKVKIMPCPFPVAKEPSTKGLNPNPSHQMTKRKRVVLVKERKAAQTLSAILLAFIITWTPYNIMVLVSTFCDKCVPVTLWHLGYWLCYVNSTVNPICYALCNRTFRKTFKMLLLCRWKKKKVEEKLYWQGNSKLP

[6] = DRUGMATRIX: Platelet-Derived Growth Factor (PDGF) radioligand binding (ligand: [125I] PDGF); assay type: cell-based; conditions: nih3t3; Not Active = under 50% inhibition at 10 µM

5-hydroxytryptamine receptor 6, sequence (P50406 whole entry): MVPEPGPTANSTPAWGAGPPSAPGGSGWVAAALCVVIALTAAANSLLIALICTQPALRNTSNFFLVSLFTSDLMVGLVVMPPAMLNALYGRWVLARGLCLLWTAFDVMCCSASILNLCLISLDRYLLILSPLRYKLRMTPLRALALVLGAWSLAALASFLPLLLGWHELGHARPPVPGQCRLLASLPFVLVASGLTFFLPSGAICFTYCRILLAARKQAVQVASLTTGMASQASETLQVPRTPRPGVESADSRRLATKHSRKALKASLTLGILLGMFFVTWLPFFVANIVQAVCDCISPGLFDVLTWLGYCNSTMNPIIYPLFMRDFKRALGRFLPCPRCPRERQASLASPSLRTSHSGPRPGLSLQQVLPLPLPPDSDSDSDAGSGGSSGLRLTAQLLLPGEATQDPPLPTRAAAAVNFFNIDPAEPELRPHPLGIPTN
Melanocortin receptor 5, sequence (P33032 whole entry): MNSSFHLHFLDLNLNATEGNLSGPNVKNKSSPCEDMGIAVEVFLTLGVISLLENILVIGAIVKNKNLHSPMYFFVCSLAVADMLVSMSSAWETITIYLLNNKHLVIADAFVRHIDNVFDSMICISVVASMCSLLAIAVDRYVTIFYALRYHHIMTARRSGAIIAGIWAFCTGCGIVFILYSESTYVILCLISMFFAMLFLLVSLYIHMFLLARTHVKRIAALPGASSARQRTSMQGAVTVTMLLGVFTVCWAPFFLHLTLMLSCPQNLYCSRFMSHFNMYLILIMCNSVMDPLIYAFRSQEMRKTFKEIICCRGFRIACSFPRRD

Compound: CCc1oc2ccccc2c1C(=O)c1cc(Br)c(O)c(Br)c1 [BENZBROMARONE]
- IC50 ([1]; hela): Not Active
- IC50 (Melanocortin receptor 5): Not Active
- IC50 ([2]; insect cells): Not Active
- IC50 [3]: Not Active
- IC50 (Cytochrome P450 2D6): Not Active
- Ki (Cytochrome P450 2D6): Not Active
- IC50 [4]: Not Active
- Ki [4]: Not Active
- IC50 [5]: Not Active
- IC50 [6]: Not Active
- Ki [6]: Not Active

Compound: CN1C[C@H](C(=O)N[C@]2(C)O[C@@]3(O)[C@@H]4CCCN4C(=O)[C@H](Cc4ccccc4)N3C2=O)C[C@@H]2c3cccc4[nH]cc(c34)C[C@H]21 [DIHYDROERGOTAMINE]
- IC50 ([1]; read-out: IC50): 3.2 nM
- Ki ([1]; read-out: Ki): 1.49 nM
- IC50 (Melanocortin receptor 5): Not Active
- IC50 ([2]; insect cells): Not Active
- IC50 [3]: Not Active
- IC50 (Cytochrome P450 2D6): Not Active
- Ki (Cytochrome P450 2D6): Not Active
- IC50 [4]: Not Active
- Ki [4]: Not Active
- IC50 [5]: Not Active
- IC50 [6]: Not Active
- Ki [6]: Not Active

Compound: CNC(=C[N+](=O)[O-])NCCSCc1csc(CN(C)C)n1 [NIZATIDINE]
- IC50 ([1]; hela): Not Active
- IC50 (Melanocortin receptor 5): Not Active
- IC50 ([2]; insect cells): Not Active
- IC50 [3]: Not Active
- IC50 (Cytochrome P450 2D6): Not Active
- Ki (Cytochrome P450 2D6): Not Active
- IC50 [4]: Not Active
- Ki [4]: Not Active
- IC50 [5]: Not Active
- IC50 [6]: Not Active
- Ki [6]: Not Active

Compound: CC(=O)O[C@]1(C(C)=O)CC[C@H]2[C@@H]3C=C(Cl)C4=CC(=O)[C@@H]5C[C@@H]5[C@]4(C)[C@H]3CC[C@@]21C [CYPROTERONE ACETATE]
- IC50 ([1]; hela): Not Active
- IC50 (Melanocortin receptor 5): Not Active
- IC50 ([2]; insect cells): Not Active
- IC50 [3]: Not Active
- IC50 (Cytochrome P450 2D6): Not Active
- Ki (Cytochrome P450 2D6): Not Active
- IC50 [4]: Not Active
- Ki [4]: Not Active
- IC50 [5]: Not Active
- IC50 [6]: Not Active
- Ki [6]: Not Active

Compound: CN(Cc1cnc2nc(N)nc(N)c2n1)c1ccc(C(=O)N[C@@H](CCC(=O)O)C(=O)O)cc1 [METHOTREXATE]
- IC50 ([1]; hela): Not Active
- IC50 (Melanocortin receptor 5): Not Active
- IC50 ([2]; insect cells): Not Active
- IC50 [3]: Not Active
- IC50 (Cytochrome P450 2D6): Not Active
- Ki (Cytochrome P450 2D6): Not Active
- IC50 [4]: Not Active
- Ki [4]: Not Active
- IC50 [5]: Not Active
- IC50 [6]: Not Active
- Ki [6]: Not Active

Compound: CC(CCc1ccc(O)cc1)NCCc1ccc(O)c(O)c1 (stereo unspecified) [DOBUTAMINE]
- IC50 ([1]; hela): Not Active
- IC50 (Melanocortin receptor 5): Not Active
- IC50 ([2]; read-out: IC50): 3980 nM
- IC50 [3]: Not Active
- IC50 (Cytochrome P450 2D6): Not Active
- Ki (Cytochrome P450 2D6): Not Active
- IC50 [4]: Not Active
- Ki [4]: Not Active
- IC50 [5]: Not Active
- IC50 [6]: Not Active
- Ki [6]: Not Active

Compound: Nc1nc(Cl)nc2c1ncn2[C@H]1C[C@H](O)[C@@H](CO)O1 [CLADRIBINE]
- IC50 ([1]; hela): Not Active
- IC50 (Melanocortin receptor 5): Not Active
- IC50 ([2]; insect cells): Not Active
- IC50 [3]: Not Active
- IC50 (Cytochrome P450 2D6): Not Active
- Ki (Cytochrome P450 2D6): Not Active
- IC50 [4]: Not Active
- Ki [4]: Not Active
- IC50 [5]: Not Active
- IC50 [6]: Not Active
- Ki [6]: Not Active

Compound: Cc1cccc(Nc2cc(Cl)nc(SCC(=O)O)n2)c1C [PIRINIXIC ACID]
- IC50 ([1]; hela): Not Active
- IC50 (Melanocortin receptor 5): Not Active
- IC50 ([2]; insect cells): Not Active
- IC50 [3]: Not Active
- IC50 (Cytochrome P450 2D6): Not Active
- Ki (Cytochrome P450 2D6): Not Active
- IC50 [4]: Not Active
- Ki [4]: Not Active
- IC50 [5]: Not Active
- IC50 [6]: Not Active
- Ki [6]: Not Active

Compound: INSULIN HUMAN
- IC50 ([1]; hela): Not Active
- Ki ([1]; hela): Not Active
- IC50 (Melanocortin receptor 5): Not Active
- Ki (Melanocortin receptor 5): Not Active
- IC50 ([2]; insect cells): Not Active
- Ki ([2]; insect cells): Not Active
- IC50 [3]: Not Active
- Ki [3]: Not Active
- IC50 (Cytochrome P450 2D6): Not Active
- Ki (Cytochrome P450 2D6): Not Active
- IC50 [4]: Not Active
- Ki [4]: Not Active
- IC50 [5]: Not Active
- Ki [5]: Not Active
- IC50 [6]: Not Active
- Ki [6]: Not Active

Compound: CCn1cc(C(=O)O)c(=O)c2cc(F)c(N3CCNCC3)nc21 [ENOXACIN]
- IC50 ([1]; hela): Not Active
- IC50 (Melanocortin receptor 5): Not Active
- IC50 ([2]; insect cells): Not Active
- IC50 [3]: Not Active
- IC50 (Cytochrome P450 2D6): Not Active
- Ki (Cytochrome P450 2D6): Not Active
- IC50 [4]: Not Active
- Ki [4]: Not Active
- IC50 [5]: Not Active
- IC50 [6]: Not Active
- Ki [6]: Not Active

Source: ChEMBL document CHEMBL1909046, “DrugMatrix in vitro pharmacology data”
